Assay results published in PMC11118710, “GLP-1 and Its Derived Peptides Mediate Pain Relief Through Direct TRPV1 Inhibition Without Affecting Thermoregulation” (Research Square, 2024).

What was measured:
[1] = acute intraperitoneal glucose tolerance test (IPGTT), blood glucose; format: in vivo, mouse (wild-type); details: 10 μg/kg i.p. 15 min before glucose 2 g/kg i.p.
Description: Licking time was recorded for 5 min after CAP injection in each group. Mechanical allodynia and thermal hyperalgesia were evaluated in separate experiments in a time-dependent manner. Mechanical allodynia was assessed using von Frey filaments (NC12775–99; North Coast Medical, CA). The 50% PWT was calculated using the up-down method. Thermal hyperalgesia was assessed by recording PWL using the Hargreaves radiant heat apparatus (IITC Life Sciences, Woodland Hills, CA). A cutoff value of 20 s was used to prevent tissue damage. […] The acute IPGTT was performed in mice aged 8 weeks. Baseline blood glucose levels were measured and mice were intraperitoneally injected with 200 μL of vehicle, exendin 20–29 (10 μg/kg), and exendin-4 (10 μg/kg) in wild-type mice (n = 6). After 15 min, the mice were challenged with glucose (2.0 g/kg body weight). Blood glucose levels were measured using an Accu-Chek Performa glucometer (Roche, Mannheim, Germany).

[2] = tested on: TRPV1 (mouse DRG neurons); experiment: Ca2+ imaging, CAP-induced responses in mouse DRG neurons; format: cell-based; details: 100 nM CAP, Fura-2 340/380 ratio
Description: Cells were mechanically dissociated by gentle pipetting and placed on glass coverslips coated with poly-D-lysine.
At room temperature, Ca^2+ imaging was conducted in mouse DRG, HEK293T, and hTRPV1-expressing CHO K1 cells. […] The cells were then rinsed three times with the medium and incubated for 30 min, following which they were placed on the stage of an inverted microscope (BX51W1; Olympus, Tokyo, Japan) and continuously superfused at a flow speed of 1 mL/min with a bath solution containing 140 mM NaCl, 5 mM KCl, 1 mM CaCl2, 2 mM MgCl2, 10 mM HEPES, and 10 mM glucose, adjusted to pH 7.4 with NaOH. […] The fluorescence 340/380 ratio was measured using digital video microfluorometry with an intensified camera (OptiMOS; QImaging, Surrey, Canada) coupled to the microscope. Data were analyzed using SlideBook 6 (Intelligent Imaging Innovations, Denver, CO). At the end of the experiment, cells were identified based on their response to high concentrations of KCl.

rat TRPV1 = experiment: Ca2+ imaging, CAP-induced responses in HEK293T cells transfected with rat TRPV1; format: cell-based; details: no GLP-1R expression, 100 nM peptide, 100 nM CAP, vs control CAP
Description: DRG cells were then grown in a neurobasal-defined medium supplemented with 10% fetal bovine serum (FBS; Gibco, Waltham, MA), 2% B27 supplement (Invitrogen, Carlsbad, CA), and 1% penicillin/streptomycin for 24 h before experiments. Human TRPV1 (hTRPV1)-expressing CHO K1 cells were cultured using Dulbecco’s modified Eagle’s medium (DMEM) containing 10% FBS, 1% penicillin/streptomycin, and 800 μg/mL geneticin in an incubator with 5% CO2 at 37°C. HEK293 and HEK293T cells were also cultured in the same DMEM but without geneticin. Rat TRPV1 plasmids were labeled with a green fluorescent protein to indicate subsequent calcium imaging. cDNA constructs of rat TRPV1 were transiently transfected into cells using Lipofectamine 2000 (Invitrogen). Ca^2+ imaging was performed one day after transient transfection.
At room temperature, Ca^2+ imaging was conducted in mouse DRG, HEK293T, and hTRPV1-expressing CHO K1 cells. Cells on poly-D-lysine-coated coverslips were loaded with 2 μM Fura-2 AM (Thermo Fisher Scientific, Waltham, MA) at 37°C for 40 min in DMEM. The cells were then rinsed three times with the medium and incubated for 30 min, following which they were placed on the stage of an inverted microscope (BX51W1; Olympus, Tokyo, Japan) and continuously superfused at a flow speed of 1 mL/min with a bath solution containing 140 mM NaCl, 5 mM KCl, 1 mM CaCl2, 2 mM MgCl2, 10 mM HEPES, and 10 mM glucose, adjusted to pH 7.4 with NaOH. Using illumination with a 175-W xenon arc lamp, excitation wavelengths (340/380 nm) were selected using a Lambda DG-4 monochromator wavelength changer (Shutter Instrument, Novato, CA). The fluorescence 340/380 ratio was measured using digital video microfluorometry with an intensified camera (OptiMOS; QImaging, Surrey, Canada) coupled to the microscope. Data were analyzed using SlideBook 6 (Intelligent Imaging Innovations, Denver, CO). At the end of the experiment, cells were identified based on their response to high concentrations of KCl.

[3] = 10 μg/kg; cited from earlier work
Description: To determine the potential effects of exendin 20–29 on GLP-1R and glucose regulation, we performed an acute intraperitoneal glucose tolerance test (IPGTT) in 8-week-old mice. […] After 15 min of exendin 20–29 or exendin-4 administration, a glucose solution (2 g/kg) was intraperitoneally injected (at 0 min; Fig. 8f).

exendin-4
blood glucose level in IPGTT [1]: significantly lowered the blood glucose level from 15 to 120 min | CAP-induced Ca2+ responses, significance ([2]; vs control CAP): ****p<.0001, compared with control CAP | reduction of CAP-induced Ca2+ responses ([2]; 100 nM peptide pretreatment, room temperature): 72.2% | CAP-induced TRPV1 calcium responses (rat TRPV1): ****p <.0001, compared with each control CAP | blood glucose levels [3]: lowers blood glucose levels
